These results are taken from US20230143604A1, “QW DOSING OF GIP RECEPTOR AGONIST PEPTIDE COMPOUNDS AND USES THEREOF” (TAKEDA PHARMACEUTICAL COMPANY LIMITED, priority 2020, published 2023).

Starred links: 1 amine or outer side, 2 acyl side, 3 side chain; linkers in the order of their positions; H or OH if unused. Non-standard residues stand in square brackets, D forms with d. Residues, ends and D or L forms follow the SMILES beside them. Groups on a side chain read outwards from the residue. *: point of attachment. C18 diacid = O=C(O)CCCCCCCCCCCCCCCCC(=O)*; γGlu = O=C(O)[C@H](CCC(=O)[*:2])N[*:1]; NMeY = CN[C@@H](Cc1ccc(O)cc1)C(=O)O; AEEA = NCCOCCOCC(=O)O; Aib = CC(C)(N)C(=O)O

The nature of the first series: physchem. The conditions noted are these: pH 7.4. The procedure, abridged:
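3 mg of peptide treated with 100 μL portions of 200 mM phosphate buffer pH 7.4, sonicating/vortexing up to 1 min, with further buffer added until fully dissolved. Solubility then quantified by HPLC.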
Turning to `CC[C@H](C)[C@H](NC(=O)[C@H](CO)NC(=O)[C@H](Cc1ccc(O)cc1)NC(=O)[C@H](CC(=O)O)NC(=O)[C@H](CO)NC(=O)[C@@H](NC(=O)[C@H](Cc1ccccc1)NC(=O)[C@@H](NC(=O)CNC(=O)[C@H](CCC(=O)O)NC(=O)C(C)(C)NC(=O)[C@H](Cc1ccc(O)cc1)NC)[C@@H](C)O)[C@@H](C)CC)C(=O)N[C@@H](C)C(=O)N[C@@H](CC(C)C)C(=O)N[C@@H](CC(=O)O)C(=O)N[C@@H](CCCNC(=N)N)C(=O)N[C@@H](C)C(=O)N[C@@H](C)C(=O)N[C@@H](CCC(N)=O)C(=O)N[C@@H](CCC(N)=O)C(=O)N[C@@H](CCCCNC(=O)COCCOCCNC(=O)COCCOCCNC(=O)CC[C@H](NC(=O)CC[C@H](NC(=O)CCCCCCCCCCCCCCCCC(=O)O)C(=O)O)C(=O)O)C(=O)N[C@@H](Cc1ccccc1)C(=O)N[C@H](C(=O)N[C@@H](CC(N)=O)C(=O)N[C@@H](Cc1c[nH]c2ccccc12)C(=O)N[C@@H](CC(C)C)C(=O)N[C@@H](CC(C)C)C(=O)N[C@@H](C)C(=O)N[C@@H](CCC(N)=O)C(=O)N[C@@H](CO)C(=O)N1CCC[C@H]1C(=O)NCC(=O)O)C(C)C` [Compound 178] (H-[NMeY][Aib]EGTFISDYSIALDRAAQQK([AEEA-AEEA-γGlu-γGlu-C18 diacid])FVNWLLAQSPG-OH), the solubility (as a rule, how much of the substance goes into solution per volume) was ≥ 15000 µg/mL. For `CC[C@H](C)[C@H](NC(=O)[C@H](CCCNC(=N)N)NC(=O)[C@H](CC(=O)O)NC(=O)[C@H](CCCCNC(=O)CNC(=O)CNC(=O)CNC(=O)CNC(=O)CNC(=O)CCCCCCCCCCCCCCCCC(=O)O)NC(=O)[C@H](C)NC(=O)[C@@H](NC(=O)[C@H](CO)NC(=O)[C@H](Cc1ccc(O)cc1)NC(=O)[C@H](CC(=O)O)NC(=O)[C@H](CO)NC(=O)[C@@H](NC(=O)[C@H](Cc1ccccc1)NC(=O)[C@@H](NC(=O)CNC(=O)[C@H](CCC(=O)O)NC(=O)C(C)(C)NC(=O)[C@H](Cc1ccc(O)cc1)NC)[C@@H](C)O)[C@@H](C)CC)[C@@H](C)CC)C(=O)N[C@@H](C)C(=O)N[C@@H](CCC(N)=O)C(=O)N[C@@H](CCCNC(=N)N)C(=O)N[C@@H](CC(N)=O)C(=O)N[C@@H](Cc1ccccc1)C(=O)N[C@H](C(=O)N[C@@H](CCC(=O)O)C(=O)N[C@@H](Cc1c[nH]c2ccccc12)C(=O)N[C@@H](CC(C)C)C(=O)N[C@@H](CC(C)C)C(=O)N[C@@H](C)C(=O)N[C@@H](CCC(N)=O)C(=O)N[C@@H](CO)C(=O)N1CCC[C@H]1C(=O)NCC(=O)O)C(C)C` [Compound 180], the solubility is ≥ 15000 µg/mL.

The series is the same for the next values; noted with them: pH 7.4, aqueous buffer.
For the molecule `CC[C@H](C)[C@H](NC(=O)[C@H](CO)NC(=O)[C@H](Cc1ccc(O)cc1)NC(=O)[C@H](CC(=O)O)NC(=O)[C@H](CO)NC(=O)[C@@H](NC(=O)[C@H](Cc1ccccc1)NC(=O)[C@@H](NC(=O)CNC(=O)[C@H](CCC(=O)O)NC(=O)C(C)(C)NC(=O)[C@H](Cc1ccc(O)cc1)NC)[C@@H](C)O)[C@@H](C)CC)C(=O)N[C@@H](C)C(=O)N[C@@H](CC(C)C)C(=O)N[C@@H](CC(=O)O)C(=O)N[C@@H](CCCNC(=N)N)C(=O)N[C@@H](C)C(=O)N[C@@H](C)C(=O)N[C@@H](CCC(N)=O)C(=O)N[C@@H](CCC(N)=O)C(=O)N[C@@H](CCCCNC(=O)COCCOCCNC(=O)COCCOCCNC(=O)CC[C@H](NC(=O)CC[C@H](NC(=O)CCCCCCCCCCCCCCCCC(=O)O)C(=O)O)C(=O)O)C(=O)N[C@@H](Cc1ccccc1)C(=O)N[C@H](C(=O)N[C@@H](CC(N)=O)C(=O)N[C@@H](Cc1c[nH]c2ccccc12)C(=O)N[C@@H](CC(C)C)C(=O)N[C@@H](CC(C)C)C(=O)N[C@@H](C)C(=O)N[C@@H](CCC(N)=O)C(=O)N[C@@H](CO)C(=O)N1CCC[C@H]1C(=O)NCC(=O)O)C(C)C` [Compound 178] (H-[NMeY][Aib]EGTFISDYSIALDRAAQQK([AEEA-AEEA-γGlu-γGlu-C18 diacid])FVNWLLAQSPG-OH), the solubility was ≥ 30000 µg/mL. For `CC[C@H](C)[C@H](NC(=O)[C@H](CO)NC(=O)[C@H](Cc1ccc(O)cc1)NC(=O)[C@H](CC(=O)O)NC(=O)[C@H](CO)NC(=O)[C@@H](NC(=O)[C@H](Cc1ccccc1)NC(=O)[C@@H](NC(=O)CNC(=O)[C@H](CCC(=O)O)NC(=O)[C@@H](C)NC(=O)[C@H](Cc1ccc(O)cc1)NC)[C@@H](C)O)[C@@H](C)CC)C(=O)N[C@@H](C)C(=O)N[C@@H](CC(C)C)C(=O)N[C@@H](CC(=O)O)C(=O)N[C@@H](CCCNC(=N)N)C(=O)N[C@H](C(=O)N[C@@H](Cc1c[nH]cn1)C(=O)N[C@@H](CCC(N)=O)C(=O)N[C@@H](CCC(N)=O)C(=O)N[C@@H](CC(N)=O)C(=O)N[C@@H](Cc1ccccc1)C(=O)N[C@H](C(=O)N[C@@H](CC(N)=O)C(=O)N[C@@H](Cc1c[nH]c2ccccc12)C(=O)N[C@@H](CC(C)C)C(=O)N[C@@H](CC(C)C)C(=O)N[C@@H](C)C(=O)N[C@@H](CCC(N)=O)C(=O)N[C@@H](CCCCNC(=O)COCCOCCNC(=O)COCCOCCNC(=O)CC[C@H](NC(=O)CCCCCCCCCCCCCCCCC(=O)O)C(=O)O)C(=O)O)C(C)C)[C@@H](C)CC` [Compound 243] (H-[NMeY][dA]EGTFISDYSIALDRIHQQNFVNWLLAQK([AEEA-AEEA-γGlu-C18 diacid])-OH; N-terminus and C-terminus assumed), the solubility is ≥ 7000 µg/mL. The same measure, in the same setting: next, `CC[C@H](C)[C@H](NC(=O)[C@H](CO)NC(=O)[C@H](Cc1ccc(O)cc1)NC(=O)[C@H](CC(=O)O)NC(=O)[C@H](CO)NC(=O)[C@@H](NC(=O)[C@H](Cc1ccccc1)NC(=O)[C@@H](NC(=O)CNC(=O)[C@H](CCC(=O)O)NC(=O)C(C)(C)NC(=O)[C@H](Cc1ccc(O)cc1)NC(C)=O)[C@@H](C)O)[C@@H](C)CC)C(=O)N[C@@H](C)C(=O)N[C@@H](CC(C)C)C(=O)N[C@@H](CC(=O)O)C(=O)N[C@@H](CCCNC(=N)N)C(=O)N[C@H](C(=O)N[C@@H](Cc1c[nH]cn1)C(=O)N[C@@H](CCC(N)=O)C(=O)N[C@@H](CCC(N)=O)C(=O)N[C@@H](CC(N)=O)C(=O)N[C@@H](Cc1ccccc1)C(=O)N[C@H](C(=O)N[C@@H](CC(N)=O)C(=O)N[C@@H](Cc1c[nH]c2ccccc12)C(=O)N[C@@H](CC(C)C)C(=O)N[C@@H](CC(C)C)C(=O)N[C@@H](C)C(=O)N[C@@H](CCC(N)=O)C(=O)N[C@@H](CCCCNC(=O)COCCOCCNC(=O)COCCOCCNC(=O)CC[C@H](NC(=O)CCCCCCCCCCCCCCCCC(=O)O)C(=O)O)C(=O)O)C(C)C)[C@@H](C)CC` [Compound 244] (Ac-Y[Aib]EGTFISDYSIALDRIHQQNFVNWLLAQK([AEEA-AEEA-γGlu-C18 diacid])-OH; C-terminus assumed): ≥ 9400 µg/mL; `CC[C@H](C)[C@H](NC(=O)[C@H](CO)NC(=O)[C@H](Cc1ccc(O)cc1)NC(=O)[C@H](CC(=O)O)NC(=O)[C@H](CO)NC(=O)[C@@H](NC(=O)[C@H](Cc1ccccc1)NC(=O)[C@@H](NC(=O)CNC(=O)[C@H](CCC(=O)O)NC(=O)C(C)(C)NC(=O)[C@H](Cc1ccc(O)cc1)NC)[C@@H](C)O)[C@@H](C)CC)C(=O)N[C@@H](C)C(=O)N[C@@H](CCCCNC(=O)COCCOCCNC(=O)COCCOCCNC(=O)CC[C@H](NC(=O)CCCCCCCCCCCCCCCCC(=O)O)C(=O)O)C(=O)N[C@@H](CC(=O)O)C(=O)N[C@@H](CCCNC(=N)N)C(=O)N[C@H](C(=O)N[C@@H](Cc1c[nH]cn1)C(=O)N[C@@H](CCC(N)=O)C(=O)N[C@@H](CCC(N)=O)C(=O)N[C@@H](CC(N)=O)C(=O)N[C@@H](Cc1ccccc1)C(=O)N[C@H](C(=O)N[C@@H](CC(N)=O)C(=O)N[C@@H](Cc1c[nH]c2ccccc12)C(=O)N[C@@H](CC(C)C)C(=O)N[C@@H](CC(C)C)C(=O)N[C@@H](C)C(=O)N[C@@H](CCC(N)=O)C(=O)N[C@@H](CCCCN)C(=O)O)C(C)C)[C@@H](C)CC` [Compound 245] (H-[NMeY][Aib]EGTFISDYSIAK([AEEA-AEEA-γGlu-C18 diacid])DRIHQQNFVNWLLAQK-OH; C-terminus assumed): ≥ 7500 µg/mL; `CC[C@H](C)[C@H](NC(=O)[C@H](CO)NC(=O)[C@H](Cc1ccc(O)cc1)NC(=O)[C@H](CC(=O)O)NC(=O)[C@H](CO)NC(=O)[C@@H](NC(=O)[C@H](Cc1ccccc1)NC(=O)[C@@H](NC(=O)CNC(=O)[C@H](CCC(=O)O)NC(=O)C(C)(C)NC(=O)[C@H](Cc1ccc(O)cc1)NC)[C@@H](C)O)[C@@H](C)CC)C(=O)N[C@@H](C)C(=O)N[C@@H](CC(C)C)C(=O)N[C@@H](CC(=O)O)C(=O)N[C@@H](CCCNC(=N)N)C(=O)N[C@@H](CCCCNC(=O)COCCOCCNC(=O)COCCOCCNC(=O)CC[C@H](NC(=O)CCCCCCCCCCCCCCCCC(=O)O)C(=O)O)C(=O)N[C@@H](Cc1c[nH]cn1)C(=O)N[C@@H](CCC(N)=O)C(=O)N[C@@H](CCC(N)=O)C(=O)N[C@@H](CC(N)=O)C(=O)N[C@@H](Cc1ccccc1)C(=O)N[C@H](C(=O)N[C@@H](CC(N)=O)C(=O)N[C@@H](Cc1c[nH]c2ccccc12)C(=O)N[C@@H](CC(C)C)C(=O)N[C@@H](CC(C)C)C(=O)N[C@@H](C)C(=O)N[C@@H](CCC(N)=O)C(=O)N[C@@H](CCCCN)C(=O)O)C(C)C` [Compound 246] (H-[NMeY][Aib]EGTFISDYSIALDRK([AEEA-AEEA-γGlu-C18 diacid])HQQNFVNWLLAQK-OH; C-terminus assumed): ≥ 700 µg/mL.
